Data set [1] concerns Pseudoperonospora cubensis. The data set can be described thus: Fungicidal activity against Pseudoperonospora cubensis administered through preventive foliar spraying of compound at 100 ppm 1 day before fungal inoculation on cucumber plants assessed as prevention of cucumber downy mildew measured 6 days after inoculation under greenhouse conditions. Type of data set: functional.

In data set [2] the test system is Pseudoperonospora cubensis. The experiment in a line: Fungicidal activity against Pseudoperonospora cubensis administered through preventive foliar spraying of compound at 100 ppm 5 days before fungal inoculation on cucumber plants assessed as prevention of cucumber downy mildew measured 6 days after inoculation under field test conditions. It counts as functional.

The test system of data set [3] is Pseudoperonospora cubensis. The data set can be described thus: Fungicidal activity against Pseudoperonospora cubensis administered through preventive foliar spraying of compound at 25 ppm 1 day before fungal inoculation on cucumber plants assessed as prevention of cucumber downy mildew measured 6 days after inoculation under greenhouse conditions. Type of data set: functional.

Data set [4] concerns Cucumis sativus. The data set can be described thus: Toxicity against Pseudoperonospora cubensis infected Cucumis sativus (cucumber) plants administered through preventive foliar spraying of compound at 25 to 100 ppm 1 day before fungal inoculation on cucumber plants measured 6 days after inoculation under greenhouse conditions. It counts as organism-based. To be noted: in vivo, other, 144 h.

The test system of data set [5] is Cucumis sativus. The experiment in a line: Toxicity against Pseudoperonospora cubensis infected Cucumis sativus (cucumber) plants administered through preventive foliar spraying of compound at 100 ppm 5 days before fungal inoculation on cucumber plants measured 6 days after inoculation under field test conditions. Type of data set: organism-based. To be noted: in vivo, other, 144 h.

As for `S=P(N=P(SCc1ccccc1)(c1ccccc1)c1ccccc1)(c1ccccc1)c1ccccc1`, the Activity in data set [1] is 100%; in data set [2], 91%; in data set [3], 88%; in data set [4], “Non-toxic”; in data set [5], “Non-toxic”.

Consider `N#CCSP(=NP(=O)(c1ccccc1)c1ccccc1)(c1ccccc1)c1ccccc1`, for which the Activity in data set [1] is reported as 89%; in data set [3], 74%; in data set [4], “Non-toxic”.

In the case of `O=C(CSP(=NP(=O)(c1ccccc1)c1ccccc1)(c1ccccc1)c1ccccc1)NCc1ccccc1`, the Activity in data set [1] is given as 93%; in data set [3] it was 76%; in data set [4], “Non-toxic”.

On to `CSP(=NP(=S)(c1ccccc1)c1ccccc1)(c1ccccc1)c1ccccc1`, for which the Activity in data set [1] is given as 82%; in data set [3], 50%; in data set [4], “Non-toxic”.

With `CCOC(=O)C(C)SP(=NP(=S)(c1ccccc1)c1ccccc1)(c1ccccc1)c1ccccc1` (stereo unspecified), the Activity was 85% in data set [1], 70% in data set [3] and “Non-toxic” in data set [4].

As to `CCSP(=NP(=O)(c1ccccc1)c1ccccc1)(c1ccccc1)c1ccccc1`, the values for the Activity in data set [1], in data set [3] and in data set [4] were 82%, 43% and “Non-toxic”, respectively.

As to `O=P(N=P(SCc1ccccc1)(c1ccccc1)c1ccccc1)(c1ccccc1)c1ccccc1`, the Activity in data set [1] is 100%; in data set [2], 88%; in data set [3], 86%; in data set [4], “Non-toxic”; in data set [5], “Non-toxic”.

Regarding `O=C(CSP(=NP(=O)(c1ccccc1)c1ccccc1)(c1ccccc1)c1ccccc1)Nc1ccccc1`, the Activity in data set [1] was 91%; in data set [3] it was 75%; in data set [4], “Non-toxic”.

With `O=C(CSP(=NP(=S)(c1ccccc1)c1ccccc1)(c1ccccc1)c1ccccc1)NCc1ccccc1`, the Activity in data set [1] is 87%; in data set [3] it was 73%; in data set [4], “Non-toxic”.

For `CCOC(=O)CSP(=NP(=O)(c1ccccc1)c1ccccc1)(c1ccccc1)c1ccccc1`, the Activity in data set [1] is on record as 92%; in data set [3] it was 77%; in data set [4], “Non-toxic”.

In the case of `CCOC(=O)C(C)SP(=NP(=O)(c1ccccc1)c1ccccc1)(c1ccccc1)c1ccccc1` (stereo unspecified), the Activity in data set [1] is on record as 90%; in data set [3] it was 76%; in data set [4], “Non-toxic”.

In the case of `CSP(=NP(=O)(c1ccccc1)c1ccccc1)(c1ccccc1)c1ccccc1`, the Activity in data set [1] is listed as 80%; in data set [3], 41%; in data set [4], “Non-toxic”.

For `CCSP(=NP(=S)(c1ccccc1)c1ccccc1)(c1ccccc1)c1ccccc1`, the Activity in data set [1] is listed as 79%; in data set [3] it was 47%; in data set [4] it was “Non-toxic”.

On to `C/C=C/CSP(=NP(=O)(c1ccccc1)c1ccccc1)(c1ccccc1)c1ccccc1`, for which the Activity in data set [1] is reported as 79%; in data set [3], 40%; in data set [4], “Non-toxic”.
